# Results reported in patent publication US8871767B2, “2-arylimidazo[1,2-B]pyridazine, 2-phenylimidazo[1,2-A]pyridine, and 2-phenylimidazo[1,2-A]pyrazine derivatives” (Hengrui (USA) Ltd., priority 2010, dated 2014).
# Like-named read-outs stand apart in the source and are kept apart here.
# What was measured:
# [1] = tested on: Hedgehog pathway activation (GLi-luciferase reporter) in Shh Light II reporter cells; assay: Hedgehog pathway activation on Shh Light II reporter cells measured by luciferase activity; assay type: cell-based; settings: Mus musculus, Shh Light II
# Procedure, shortened: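 Shh Light II reporter cells carrying a hedgehog-responsive GLi-luciferase reporter were stimulated either with 500 nM SAG, a direct Smoothened agonist, or with conditioned media containing human Sonic Hedgehog (hShh). Test compounds were evaluated for blocking this pathway activation, quantified by luciferase activity. Cell viability was monitored in parallel with the Celltiter-Blue® assay.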
# [2] = tested on: Hedgehog pathway activation on 10T1/2/Smo#3 cells (C3H10T1/2 cells transfected with human Smoothened receptor); assay: Hedgehog pathway activation on 10T1/2/Smo#3 cells measured by ALP activity; assay type: cell-based; settings: Mus musculus, C3H 10T1/2, 10T1/2/Smo#3 cells
# Procedure, shortened: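 Inhibition of alkaline phosphatase induction, read fluorometrically from 4-methylumbelliferyl phosphate conversion, gave IC50 values; CellTiter-Blue tracked viability in parallel. Cells were the human Smo-transfected 10T1/2/Smo#3 pool, stimulated by 10-20% hShh conditioned medium or the Smo agonist SAG (500 nM).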
# [3] = hShh activation, read-out: Shh (IC50, inhibition of Hedgehog pathway activation)
# [4] = measured by ALP activity, read-out: ALP (IC50, inhibition of Hedgehog pathway activation)
# [5] = SAG activation (500 nM SAG), read-out: Shh Light II luciferase activity (SAG activation)
# [6] = hShh activation, read-out: Shh Light II luciferase activity (hShh activation)
# [7] = hShh activation, ALP activity, read-out: 10T1/2/Smo#3 ALP activity (hShh Activation)
"IC50 [1, 3] [nM]","IC50 [2, 4] [nM]","IC50 [1, 5] [nM]","IC50 [1, 6] [nM]","IC50 [2, 7] [nM]",Structure (SMILES)
2180,418,–,–,–,"Cc1ccc(-c2cn3nc(N4CCC(N(C)C(=O)C(N)C(C)C)C4)ccc3n2)cc1NC(=O)C(C)(C)C (stereo not shown) [Example 637, 2-amino-N,3-dimethyl-N-(1-(2-(4-methyl-3-pivalamidophenyl)imidazo[1,2-b]pyridazin-6-yl)pyrrolidin-3-yl)butanamide]"
20,20,–,–,–,"Cc1ccc(-c2cn3nc(-c4cccnc4C(F)(F)F)ccc3n2)cc1NC(=O)C(C)(C)C(F)(F)F [Example 638, 3,3,3-trifluoro-2,2-dimethyl-N-(2-methyl-5-(6-(2-(trifluoromethyl)pyridin-3-yl)imidazo[1,2-b]pyridazin-2-yl)phenyl)propanamide]"
30,55,< 300,< 300,< 300,"Cc1cc(Cl)c(-c2cn3nc(-c4cccnc4C(F)(F)F)ccc3n2)cc1NC(=O)C(C)(C)C [Example 639, N-(4-chloro-2-methyl-5-(6-(2-(trifluoromethyl)pyridin-3-yl)imidazo[1,2-b]pyridazin-2-yl)phenyl)pivalamide]"
107,138,–,–,–,"Cc1cc(Cl)c(-c2cn3nc(N4CC[C@@H](O)C4)ccc3n2)cc1NC(=O)C(C)(C)C [Example 640, (R)—N-(4-chloro-5-(6-(3-hydroxypyrrolidin-1-yl)imidazo[1,2-b]pyridazin-2-yl)-2-methylphenyl)pivalamide]"
76,34,–,–,–,"Cc1ccc(-c2nc3ccc(-c4cccnc4C(F)(F)F)nn3c2Cl)cc1NC(=O)C(C)(C)C [Example 641, N-(5-(3-chloro-6-(2-(trifluoromethyl)pyridin-3-yl)imidazo[1,2-b]pyridazin-2-yl)-2-methylphenyl)pivalamide]"
13,6,< 300,< 300,< 300,"CC(C)(C)C(=O)Nc1cc(-c2cn3nc(-c4cccnc4C(F)(F)F)ccc3n2)ccc1Cl [Example 642, N-(2-chloro-5-(6-(2-(trifluoromethyl)pyridin-3-yl)imidazo[1,2-b]pyridazin-2-yl)phenyl)pivalamide]"
146,23,–,–,–,"CC(C)(C)C(=O)Nc1cc(-c2cn3nc(N4CC[C@@H](O)C4)ccc3n2)ccc1Cl [Example 643, (R)—N-(2-chloro-5-(6-(3-hydroxypyrrolidin-1-yl)imidazo[1,2-b]pyridazin-2-yl)phenyl)pivalamide]"
72,15,–,–,–,"CC(C)(C)C(=O)Nc1cc(-c2cn3nc(-c4cccnc4C(F)(F)F)ccc3n2)ccc1C1CC1 [Example 644, N-(2-cyclopropyl-5-(6-(2-(trifluoromethyl)pyridin-3-yl)imidazo[1,2-b]pyridazin-2-yl)phenyl)pivalamide]"
589,155,–,–,–,"Cc1ccc(-c2cn3nc(-c4cccnc4C(F)(F)F)ccc3n2)cc1NC(=O)C1CCCN1 (stereo not shown) [Example 645, N-(2-methyl-5-(6-(2-(trifluoromethyl)pyridin-3-yl)imidazo[1,2-b]pyridazin-2-yl)phenyl)pyrrolidine-2-carboxamide]"
38,16,300 to 3000,< 300,< 300,"Cc1ccc(-c2cn3nc(-c4cccnc4C(F)(F)F)ccc3n2)cc1NC(=O)NC(C)(C)C [Example 646, 1-tert-butyl-3-(2-methyl-5-(6-(2-(trifluoromethyl)pyridin-3-yl)imidazo[1,2-b]pyridazin-2-yl)phenyl)urea]"
186,94,–,–,–,"Cc1ccc(-c2cn3nc(-c4cccnc4C(F)(F)F)ccc3n2)cc1NC(=O)C1CCCN1C (stereo not shown) [Example 647, 1-methyl-N-(2-methyl-5-(6-(2-(trifluoromethyl)pyridin-3-yl)imidazo[1,2-b]pyridazin-2-yl)phenyl)pyrrolidine-2-carboxamide]"
400,373,–,–,–,"CCN1CCCC1C(=O)Nc1cc(-c2cn3nc(-c4cccnc4C(F)(F)F)ccc3n2)ccc1C (stereo not shown) [Example 648, 1-ethyl-N-(2-methyl-5-(6-(2-(trifluoromethyl)pyridin-3-yl)imidazo[1,2-b]pyridazin-2-yl)phenyl)pyrrolidine-2-carboxamide]"
80,50,–,–,–,"Cc1cc(F)c(-c2cn3nc(-c4cccnc4C(F)(F)F)ccc3n2)cc1NC(=O)C(C)(C)C [Example 649, N-(4-fluoro-2-methyl-5-(6-(2-(trifluoromethyl)pyridin-3-yl)imidazo[1,2-b]pyridazin-2-yl)phenyl)pivalamide]"
100,25,< 300,< 300,< 300,"CC(C)(C)C(=O)Nc1cc(-c2cn3nc(-c4cccnc4C(F)(F)F)ccc3n2)c(F)cc1Cl [Example 650, N-(2-chloro-4-fluoro-5-(6-(2-(trifluoromethyl)pyridin-3-yl)imidazo[1,2-b]pyridazin-2-yl)phenyl)pivalamide]"
139,127,–,–,–,"Cc1ccc(-c2cn3nc(-c4cccnc4C(F)(F)F)ccc3n2)cc1NC(=O)NC1CC1 [Example 651, 1-cyclopropyl-3-(2-methyl-5-(6-(2-(trifluoromethyl)pyridin-3-yl)imidazo[1,2-b]pyridazin-2-yl)phenyl)urea]"
34,36,–,–,–,"CC(C)(C)C(=O)Nc1cc(-c2cn3nc(-c4cccnc4C(F)(F)F)ccc3n2)c(F)cc1F [Example 652, N-(2,4-difluoro-5-(6-(2-(trifluoromethyl)pyridin-3-yl)imidazo[1,2-b]pyridazin-2-yl)phenyl)pivalamide]"
10,80,–,–,–,"CC1(C(=O)Nc2cc(-c3cn4nc(-c5cccnc5C(F)(F)F)ccc4n3)ccc2Cl)CC1 [Example 653, N-(2-chloro-5-(6-(2-(trifluoromethyl)pyridin-3-yl)imidazo[1,2-b]pyridazin-2-yl)phenyl)-1-methylcyclopropanecarboxamide]"
228,764,–,–,–,"O=C(Nc1cc(-c2cn3nc(-c4cccnc4C(F)(F)F)ccc3n2)ccc1Cl)NC1CC1 [Example 654, 1-(2-chloro-5-(6-(2-(trifluoromethyl)pyridin-3-yl)imidazo[1,2-b]pyridazin-2-yl)phenyl)-3-cyclopropylurea]"
23,70,< 300,< 300,< 300,"CCN(CC)C(=O)Nc1cc(-c2cn3nc(-c4cccnc4C(F)(F)F)ccc3n2)ccc1Cl [Example 655, 3-(2-chloro-5-(6-(2-(trifluoromethyl)pyridin-3-yl)imidazo[1,2-b]pyridazin-2-yl)phenyl)-1,1-diethylurea]"
38,117,–,–,–,"O=C(Nc1cc(-c2cn3nc(-c4cccnc4C(F)(F)F)ccc3n2)ccc1Cl)N1CCCC1 [Example 656, N-(2-chloro-5-(6-(2-(trifluoromethyl)pyridin-3-yl)imidazo[1,2-b]pyridazin-2-yl)phenyl)pyrrolidine-1-carboxamide]"
96,251,–,–,–,"CCOC(=O)Nc1cc(-c2cn3nc(-c4cccnc4C(F)(F)F)ccc3n2)c(F)cc1Cl [Example 657, ethyl 2-chloro-4-fluoro-5-(6-(2-(trifluoromethyl)pyridin-3-yl)imidazo[1,2-b]pyridazin-2-yl)phenylcarbamate]"
27,85,–,–,–,"CC(C)(C)C(=O)Nc1cc(-c2cn3nc(-c4cccnc4C(F)(F)F)ccc3n2)ccc1F [Example 658, N-(2-fluoro-5-(6-(2-(trifluoromethyl)pyridin-3-yl)imidazo[1,2-b]pyridazin-2-yl)phenyl)pivalamide]"
22,75,–,–,–,"CCC(C)(C)C(=O)Nc1cc(-c2cn3nc(-c4cccnc4C(F)(F)F)ccc3n2)c(F)cc1Cl [Example 659, N-(2-chloro-4-fluoro-5-(6-(2-(trifluoromethyl)pyridin-3-yl)imidazo[1,2-b]pyridazin-2-yl)phenyl)-2,2-dimethylbutanamide]"
32,17,–,–,–,"CC(C)(C(=O)Nc1cc(-c2cn3nc(-c4cccnc4C(F)(F)F)ccc3n2)c(F)cc1Cl)C(F)(F)F [Example 660, N-(2-chloro-4-fluoro-5-(6-(2-(trifluoromethyl)pyridin-3-yl)imidazo[1,2-b]pyridazin-2-yl)phenyl)-3,3,3-trifluoro-2,2-dimethylpropanamide]"
31,15,–,–,–,"CC(CC(=O)Nc1cc(-c2cn3nc(-c4cccnc4C(F)(F)F)ccc3n2)c(F)cc1Cl)C(F)(F)F (stereo not shown) [Example 661, N-(2-chloro-4-fluoro-5-(6-(2-(trifluoromethyl)pyridin-3-yl)imidazo[1,2-b]pyridazin-2-yl)phenyl)-4,4,4-trifluoro-3-methylbutanamide]"
39,161,< 300,< 300,< 300,"CCCC(C)(C)C(=O)Nc1cc(-c2cn3nc(-c4cccnc4C(F)(F)F)ccc3n2)c(F)cc1Cl [Example 662, N-(2-chloro-4-fluoro-5-(6-(2-(trifluoromethyl)pyridin-3-yl)imidazo[1,2-b]pyridazin-2-yl)phenyl)-2,2-dimethylpentanamide]"
